Laboratory results from US9695155B2, “Herbicidal substituted pyrimidinyloxy benzene compounds” (E. I. DU PONT DE NEMOURS AND COMPANY, priority 2013, dated 2017).

Columns and labels:
Assay in all cases: Test E preemergence
[1] = tested on: soybean; type: in vivo, Glycine max; conditions: for Soybean plant response rating: scale 0 to 100 (0 no effect, 100 complete control); for Plant response rating, Soybean: scale 0 to 100, 0 no effect, 100 complete control
How it was run: (§1)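 Test chemicals formulated in a non-phytotoxic solvent mixture containing a surfactant were applied preemergence to seeds in silt loam soil or postemergence to plants at the 1- to 4-leaf stage in potting mix. After 14 to 21 days in a greenhouse, injury was visually rated against controls on a 0-100 scale (0 = no effect, 100 = complete control).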

[2] = tested on: surinam grass; type: in vivo, Brachiaria decumbens; conditions: for Surinam Grass plant response rating: scale 0 to 100 (0 no effect, 100 complete control); for Plant response rating, Surinam Grass: scale 0 to 100, 0 no effect, 100 complete control
How it was run: as §1

[3] = tested on: large (Lg) crabgrass; type: in vivo, Digitaria sanguinalis; conditions: for Crabgrass, Large plant response rating: scale 0 to 100 (0 no effect, 100 complete control); for Plant response rating, Crabgrass, Large: scale 0 to 100, 0 no effect, 100 complete control
How it was run: as §1

[4] = tested on: fall panicum; type: in vivo, Panicum dichotomiflorum; conditions: for Panicum, Fall plant response rating: scale 0 to 100 (0 no effect, 100 complete control); for Plant response rating, Panicum, Fall: scale 0 to 100, 0 no effect, 100 complete control
How it was run: as §1

[5] = tested on: giant foxtail; type: in vivo, Setaria faberii; conditions: for Foxtail, Giant plant response rating: scale 0 to 100 (0 no effect, 100 complete control); for Plant response rating, Foxtail, Giant: scale 0 to 100, 0 no effect, 100 complete control
How it was run: as §1

[6] = tested on: goosegrass; type: in vivo, Eleusine indica; conditions: for Goosegrass plant response rating: scale 0 to 100 (0 no effect, 100 complete control); for Plant response rating, Goosegrass: scale 0 to 100, 0 no effect, 100 complete control
How it was run: as §1

[7] = tested on: ragweed; type: in vivo, Ambrosia elatior; conditions: for Ragweed plant response rating: scale 0 to 100 (0 no effect, 100 complete control); for Plant response rating, Ragweed: scale 0 to 100, 0 no effect, 100 complete control
How it was run: as §1

[8] = tested on: barnyardgrass; type: in vivo, Echinochloa crus-galli; conditions: for Barnyardgrass plant response rating: scale 0 to 100 (0 no effect, 100 complete control); for Plant response rating, Barnyardgrass: scale 0 to 100, 0 no effect, 100 complete control
How it was run: as §1

[9] = tested on: sandbur; type: in vivo, Cenchrus echinatus; conditions: for Sandbur plant response rating: scale 0 to 100 (0 no effect, 100 complete control); for Plant response rating, Sandbur: scale 0 to 100, 0 no effect, 100 complete control
How it was run: as §1

[10] = tested on: Italian ryegrass; type: in vivo, Lolium multiflorum; conditions: for Ryegrass, Italian plant response rating: scale 0 to 100 (0 no effect, 100 complete control); for Plant response rating, Ryegrass, Italian: scale 0 to 100, 0 no effect, 100 complete control
How it was run: as §1

[11] = tested on: morningglory; type: in vivo, Ipomoea coccinea; conditions: for Morningglory plant response rating: scale 0 to 100 (0 no effect, 100 complete control); for Plant response rating, Morningglory: scale 0 to 100, 0 no effect, 100 complete control
How it was run: as §1

[12] = tested on: nightshade; type: in vivo, Solanum ptycanthum; conditions: for Nightshade plant response rating: scale 0 to 100 (0 no effect, 100 complete control); for Plant response rating, Nightshade: scale 0 to 100, 0 no effect, 100 complete control
How it was run: as §1

[13] = tested on: kochia; type: in vivo, Kochia scoparia; conditions: for Kochia plant response rating: scale 0 to 100 (0 no effect, 100 complete control); for Plant response rating, Kochia: scale 0 to 100, 0 no effect, 100 complete control
How it was run: as §1

[14] = tested on: hairy beggarticks; type: in vivo, Bidens pilosa; conditions: for Beggarticks plant response rating: scale 0 to 100 (0 no effect, 100 complete control); for Plant response rating, Beggarticks: scale 0 to 100, 0 no effect, 100 complete control
How it was run: as §1

N#Cc1cccc(Oc2ncc(Br)cn2)c1-n1cc(C(F)(F)F)cn1 [Compound 59, 3-[(5-bromo-2-pyrimidinyl)oxy]-2-[4-(trifluoromethyl)-1H-pyrazol-1-yl]benzonitrile]
Soybean plant response rating ([1]; 16 g ai/ha): 0
Soybean plant response rating ([1]; 31 g ai/ha): 0
Plant response rating, Soybean ([1]; 125 g ai/ha): 50
Plant response rating, Soybean ([1]; 250 g ai/ha): 95
Surinam Grass plant response rating ([2]; 16 g ai/ha): 0
Surinam Grass plant response rating ([2]; 31 g ai/ha): 0
Surinam Grass plant response rating ([2]; 62 g ai/ha): 5
Plant response rating, Surinam Grass ([2]; 125 g ai/ha): 20
Plant response rating, Surinam Grass ([2]; 250 g ai/ha): 65
Crabgrass, Large plant response rating ([3]; 16 g ai/ha): 5
Crabgrass, Large plant response rating ([3]; 31 g ai/ha): 95
Crabgrass, Large plant response rating ([3]; 62 g ai/ha): 100
Plant response rating, Crabgrass, Large ([3]; 125 g ai/ha): 100
Plant response rating, Crabgrass, Large ([3]; 250 g ai/ha): 100
Panicum, Fall plant response rating ([4]; 16 g ai/ha): 50
Panicum, Fall plant response rating ([4]; 31 g ai/ha): 75
Panicum, Fall plant response rating ([4]; 62 g ai/ha): 98
Plant response rating, Panicum, Fall ([4]; 125 g ai/ha): 100
Plant response rating, Panicum, Fall ([4]; 250 g ai/ha): 100
Foxtail, Giant plant response rating ([5]; 16 g ai/ha): 5
Foxtail, Giant plant response rating ([5]; 31 g ai/ha): 10
Foxtail, Giant plant response rating ([5]; 62 g ai/ha): 85
Plant response rating, Foxtail, Giant ([5]; 125 g ai/ha): 100
Plant response rating, Foxtail, Giant ([5]; 250 g ai/ha): 100
Goosegrass plant response rating ([6]; 16 g ai/ha): 15
Goosegrass plant response rating ([6]; 31 g ai/ha): 25
Goosegrass plant response rating ([6]; 62 g ai/ha): 65
Plant response rating, Goosegrass ([6]; 125 g ai/ha): 98
Plant response rating, Goosegrass ([6]; 250 g ai/ha): 98
Ragweed plant response rating ([7]; 16 g ai/ha): 0
Ragweed plant response rating ([7]; 31 g ai/ha): 0
Ragweed plant response rating ([7]; 62 g ai/ha): 0
Plant response rating, Ragweed ([7]; 125 g ai/ha): 5
Plant response rating, Ragweed ([7]; 250 g ai/ha): 50
Barnyardgrass plant response rating ([8]; 16 g ai/ha, preemergence): 0
Barnyardgrass plant response rating ([8]; 31 g ai/ha, preemergence): 20
Plant response rating, Barnyardgrass ([8]; Preemergence, 62 g ai/ha): 50
Plant response rating, Barnyardgrass ([8]; preemergence, 125 g ai/ha): 75
Plant response rating, Barnyardgrass ([8]; preemergence, 250 g ai/ha): 95
Sandbur plant response rating ([9]; 16 g ai/ha): 0
Sandbur plant response rating ([9]; 31 g ai/ha): 15
Sandbur plant response rating ([9]; 62 g ai/ha): 30
Plant response rating, Sandbur ([9]; 125 g ai/ha): 50
Plant response rating, Sandbur ([9]; 250 g ai/ha): 95
Ryegrass, Italian plant response rating ([10]; 16 g ai/ha): 0
Ryegrass, Italian plant response rating ([10]; 31 g ai/ha): 0
Ryegrass, Italian plant response rating ([10]; 62 g ai/ha): 50
Plant response rating, Ryegrass, Italian ([10]; 125 g ai/ha): 75
Plant response rating, Ryegrass, Italian ([10]; 250 g ai/ha): 95
Morningglory plant response rating ([11]; 16 g ai/ha): 0
Morningglory plant response rating ([11]; 31 g ai/ha): 15
Morningglory plant response rating ([11]; 62 g ai/ha): 65
Plant response rating, Morningglory ([11]; 125 g ai/ha): 75
Plant response rating, Morningglory ([11]; 250 g ai/ha): 100
Nightshade plant response rating ([12]; 16 g ai/ha): 0
Nightshade plant response rating ([12]; 31 g ai/ha): 50
Nightshade plant response rating ([12]; 62 g ai/ha): 90
Plant response rating, Nightshade ([12]; 125 g ai/ha): 100
Plant response rating, Nightshade ([12]; 250 g ai/ha): 100
Kochia plant response rating ([13]; 16 g ai/ha): 20
Kochia plant response rating ([13]; 31 g ai/ha): 80
Kochia plant response rating ([13]; 62 g ai/ha): 100
Plant response rating, Kochia ([13]; 125 g ai/ha): 100
Plant response rating, Kochia ([13]; 250 g ai/ha): 100
Beggarticks plant response rating ([14]; 16 g ai/ha, preemergence): 0
Beggarticks plant response rating ([14]; 31 g ai/ha, preemergence): 0
Plant response rating, Beggarticks ([14]; Preemergence, 62 g ai/ha): 0
Plant response rating, Beggarticks ([14]; preemergence, 125 g ai/ha): 0
Plant response rating, Beggarticks ([14]; preemergence, 250 g ai/ha): 25
